# Measured values from patent US11464770B2, “Anticancer pharmaceutical composition” (NATIONAL CANCER CENTER, priority 2016, dated 2022).
# Like-named read-outs stand apart in the source and are kept apart here.
# What was measured:
# [1] = system: pancreatic cancer cell lines (e.g. MIA PaCa-2); test: Cell based assay, cell viability (CellTiter-Glo), pancreatic cancer cell lines; conditions: Homo sapiens
# Experimental: (§1) Commercially available bladder cancer, prostate cancer, lung cancer, breast cancer, blood cancer, pancreatic cancer, colorectal cancer, brain cancer, neuroblastoma, melanoma, liver cancer, cervical carcinoma, ovarian cancer, renal cancer, and papilloma cell lines were each treated with trypsin-EDTA and cultured, followed by being seeded in each well of a 96 well plate. After 24 hours of treatment at constant temperature, the respective cells were treated with the candidate compound so that a final concentration became 0 to 2 μM. The treated cells were additionally cultured for 72 hours, and cell viability was measured by using an ATP detection method (CellTiter-Glo® Luminescent Cell Viability Assay, Promega).
# [2] = system: cervical carcinoma cell lines; test: Cell based assay, cell viability (CellTiter-Glo), cervical carcinoma cell lines; conditions: Homo sapiens; HeLa cells
# Experimental: as §1, with “After 24 hours of treatment at constant temperature, the respective cells were treated with the candidate compound so that a final concentration became 0 to 2 μM.” left out
# [3] = system: blood cancer cell lines (e.g. HL-60, Jurkat, Raji, Ramos, Daudi, MOLT-4); test: Cell based assay, cell viability (CellTiter-Glo), blood cancer cell lines; conditions: Homo sapiens
# Experimental: as §1
# [4] = pancreatic cancer cell line AsPC-1, 72 hours, read-out: IC50, AsPC-1
# [5] = pancreatic cancer cell line BxPC-3, 72 hours, read-out: IC50, BxPC-3
# [6] = pancreatic cancer cell line CFPAC-1, 72 hours, read-out: IC50, CFPAC-1
# [7] = pancreatic cancer cell line Capan-1, 72 hours, read-out: IC50, Capan-1
# [8] = pancreatic cancer cell line Capan-2, 72 hours, read-out: IC50, Capan-2
# [9] = pancreatic cancer cell line MIA PaCa-2, 72 hours, read-out: IC50, MIA PaCa-2
# [10] = pancreatic cancer cell line PANC-1, 72 hours, read-out: IC50, PANC-1
# [11] = MV4-11, blood cancer cell line MV-4-11, 72 hours, read-out: IC50, MV-4-11
# [12] = blood cancer cell line Daudi, 72 hours, read-out: IC50, Daudi
# [13] = blood cancer cell line HL-60, 72 hours, read-out: IC50, HL-60
# [14] = blood cancer cell line Jurkat, 72 hours, read-out: IC50, Jurkat
# [15] = blood cancer cell line MOLT-4, 72 hours, read-out: IC50, MOLT-4
# [16] = blood cancer cell line Raji, 72 hours, read-out: IC50, Raji
# [17] = blood cancer cell line Ramos (RA 1), 72 hours, read-out: IC50, Ramos (RA 1)
# [18] = blood cancer cell line U-937, 72 hours, read-out: IC50, U-937
SMILES,"IC50 [1, 4] [nM]","IC50 [1, 5] [nM]","IC50 [1, 6] [nM]","IC50 [1, 7] [nM]","IC50 [1, 8] [nM]","IC50 [1, 9] [nM]","IC50 [1, 10] [nM]",IC50 [2] [nM],"IC50 [3, 11] [nM]","IC50 [3, 12] [nM]","IC50 [3, 13] [nM]","IC50 [3, 14] [nM]","IC50 [3, 15] [nM]","IC50 [3, 16] [nM]","IC50 [3, 17] [nM]","IC50 [3, 18] [nM]"
"CC(=O)c1c([S+](C)[O-])n(C(C)=O)c2c(Br)ccc(Cl)c2c1=O (stereo not drawn) [Compound 19, 1,1′-(8-bromo-5-chloro-2-(methylsulfinyl)-4-oxoquinoline-1,3(4H)-diyl)bis(ethan-1-one)]",> 2000,> 2000,> 10000,> 2000,> 2000,> 2000,> 2000,> 10000,> 2000,> 2000,> 2000,> 2000,> 2000,> 2000,> 2000,> 2000
"CC(=O)c1c([S+]([O-])Cc2ccccc2)n(C(=O)c2ccc(Br)cc2)c2c(Br)ccc(Cl)c2c1=O (stereo not drawn) [Compound 20, 3-acetyl-2-(benzylsulfinyl)-8-bromo-1-(4-bromobenzoyl)-5-chloroquinolin-4(1H)-one]",> 2000,> 2000,> 10000,> 2000,> 2000,> 2000,> 2000,> 10000,> 2000,> 2000,> 2000,> 2000,> 2000,1180,1510,> 2000
"CC(=O)c1c(S(C)(=O)=O)n(C(=O)c2ccc(Br)cc2)c2c(Br)ccc(Cl)c2c1=O [Compound 21, 3-acetyl-8-bromo-1-(4-bromobenzoyl)-5-chloro-2-(methylsulfonyl)quinolin-4(1H)-one]",> 2000,> 2000,> 10000,> 2000,> 2000,> 2000,> 2000,> 10000,> 2000,> 2000,> 2000,> 2000,> 2000,> 2000,> 2000,> 2000
"CC(=O)c1c([S+](C)[O-])n(Cc2ccc(F)c(Cl)c2)c2c(Br)ccc(Cl)c2c1=O (stereo not drawn) [Compound 22, 3-acetyl-8-bromo-5-chloro-1-(3-chloro-4-fluorobenzyl)-2-(methylsulfinyl)quinolin-4(1H)-one]",> 2000,> 2000,> 10000,> 2000,> 2000,> 2000,> 2000,> 10000,> 2000,> 2000,> 2000,> 2000,> 2000,> 2000,> 2000,> 2000
"CC(=O)c1c(SCc2ccccc2)n(C(=O)c2ccc(Br)cc2)c2c(Br)ccc(Cl)c2c1=O [Compound 23, 3-acetyl-2-(benzylthio)-8-bromo-1-(4-bromobenzoyl)-5-chloroquinolin-4(1H)-one]",> 2000,> 2000,> 10000,> 2000,> 2000,> 2000,> 2000,> 10000,> 2000,> 2000,> 2000,> 2000,> 2000,> 2000,> 2000,> 2000
"CC(=O)c1c(SC(C)C)[nH]c2c(Br)ccc(Cl)c2c1=O [Compound 24, 3-acetyl-8-bromo-5-chloro-2-(isopropylthio)quinolin-4(1H)-one]",> 2000,> 2000,> 10000,> 2000,> 2000,> 2000,> 2000,> 10000,> 2000,> 2000,> 2000,> 2000,> 2000,> 2000,> 2000,> 2000
"CC(=O)c1c([S+]([O-])C(C)C)[nH]c2c(Br)ccc(Cl)c2c1=O (stereo not drawn) [Compound 25, 3-acetyl-8-bromo-5-chloro-2-(isopropylsulfinyl)quinolin-4(1H)-one]",> 2000,> 2000,> 10000,> 2000,> 2000,> 2000,> 2000,> 10000,> 2000,> 2000,> 2000,> 2000,> 2000,> 2000,> 2000,> 2000
"CC(=O)c1c([S+]([O-])C(C)c2ccccc2)[nH]c2c(Br)ccc(Cl)c2c1=O (stereo not drawn) [Compound 26, 3-acetyl-8-bromo-5-chloro-2-((1-phenylethyl)sulfinyl)quinolin-4(1H)-one]",> 2000,> 2000,> 10000,> 2000,> 2000,> 2000,> 2000,> 10000,> 2000,> 2000,> 2000,1790,1740,> 2000,> 2000,> 2000
"CC(=O)c1c(SCc2cccc(C#N)c2)[nH]c2c(Br)ccc(Cl)c2c1=O [Compound 27, 3-(((3-acetyl-8-bromo-5-chloro-4-oxo-1,4-dihydroquinolin-2-yl)thio)methyl)benzonitrile]",> 2000,> 2000,> 10000,> 2000,> 2000,> 2000,> 2000,> 10000,> 2000,> 2000,> 2000,> 2000,> 2000,> 2000,> 2000,> 2000

# Other lines, results leading:
"IC50 [1, 4] [nM]","IC50 [1, 5] [nM]","IC50 [1, 6] [nM]","IC50 [1, 7] [nM]","IC50 [1, 8] [nM]","IC50 [1, 9] [nM]","IC50 [1, 10] [nM]",IC50 [2] [nM],"IC50 [3, 11] [nM]","IC50 [3, 12] [nM]","IC50 [3, 13] [nM]","IC50 [3, 14] [nM]","IC50 [3, 15] [nM]","IC50 [3, 16] [nM]","IC50 [3, 17] [nM]","IC50 [3, 18] [nM]",SMILES
> 2000,> 2000,> 10000,> 2000,> 2000,880,> 2000,> 10000,1070,1940,1060,880,1180,870,1490,870,"CC(=O)c1c([S+]([O-])Cc2cccc(C#N)c2)[nH]c2c(Br)ccc(Cl)c2c1=O (stereo not drawn) [Compound 28, 3-(((3-acetyl-8-bromo-5-chloro-4-oxo-1,4-dihydroquinolin-2-yl)sulfinyl)methyl)benzonitrile]"
> 2000,> 2000,> 10000,> 2000,> 2000,> 2000,> 2000,> 10000,> 2000,> 2000,> 2000,> 2000,> 2000,> 2000,> 2000,> 2000,"CC(=O)c1c(SCc2ccc(F)c(Cl)c2)[nH]c2c(Br)ccc(Cl)c2c1=O [Compound 30, 3-acetyl-8-bromo-5-chloro-2-((3-chloro-4-fluorobenzyl)thio)quinolin-4(1H)-one]"
> 2000,> 2000,> 10000,> 2000,> 2000,> 2000,> 2000,> 10000,> 2000,> 2000,> 2000,> 2000,> 2000,> 2000,> 2000,> 2000,"CC(=O)c1c(SCc2ccc([N+](=O)[O-])cc2)[nH]c2c(Br)ccc(Cl)c2c1=O [Compound 32, 3-acetyl-8-bromo-5-chloro-2-((4-nitrobenzyl)thio)quinolin-4(1H)-one]"
> 2000,> 2000,> 10000,> 2000,> 2000,> 2000,> 2000,> 10000,> 2000,> 2000,> 2000,> 2000,> 2000,> 2000,> 2000,> 2000,"CSc1c(C(C)=O)c(=O)c2c(Cl)ccc(Br)c2n1S(C)(=O)=O [Compound 35, 3-acetyl-8-bromo-5-chloro-1-(methylsulfonyl)-2-(methylthio)quinolin-4(1H)-one]"
> 2000,> 2000,> 10000,> 2000,> 2000,> 2000,> 2000,> 10000,> 2000,> 2000,> 2000,> 2000,> 2000,> 2000,> 2000,> 2000,"CC(=O)c1c([S+](C)[O-])n(S(=O)(=O)C(F)(F)F)c2c(Br)ccc(Cl)c2c1=O (stereo not drawn) [Compound 36, 3-acetyl-8-bromo-5-chloro-2-(methylsulfinyl)-1-((trifluoromethyl)sulfonyl)quinolin-4(1H)-one]"
> 2000,> 2000,> 10000,> 2000,> 2000,> 2000,> 2000,> 10000,> 2000,> 2000,> 2000,> 2000,> 2000,> 2000,> 2000,> 2000,"CSc1c(C(C)=O)c(=O)c2c(Cl)ccc(Br)c2n1S(=O)(=O)c1ccc(Cl)cc1 [Compound 37, 3-acetyl-8-bromo-5-chloro-1-((4-chlorophenyl)sulfonyl)-2-(methylthio)quinolin-4(1H)-one]"
